Measurements reported in PubChem BioAssay (NCI).
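All cell lines were grown in 96-well plates and treated with compound for 48 hours. At the TGI there is no net growth.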

Experiments:
Assay in all cases: growth of human tumour cells (NCI), 48 h
MOLT-4 leukemia = test system: MOLT-4 leukemia
COLO 205 colon = test system: COLO 205 colon
OVCAR-5 ovarian = test system: OVCAR-5 ovarian
SK-MEL-28 melanoma = test system: SK-MEL-28 melanoma
NCI-H460 lung = test system: NCI-H460 lung
OVCAR-8 ovarian = test system: OVCAR-8 ovarian
HCT-116 colon = test system: HCT-116 colon
UACC-62 melanoma = test system: UACC-62 melanoma
HT29 colon = test system: HT29 colon
HL-60(TB) leukemia = test system: HL-60(TB) leukemia
HOP-92 NSCLC = test system: HOP-92 NSCLC
K-562 leukemia = test system: K-562 leukemia
SF-268 CNS = test system: SF-268 CNS
MALME-3M melanoma = test system: MALME-3M melanoma
SF-539 CNS = test system: SF-539 CNS
MDA-MB-435 = test system: MDA-MB-435
OVCAR-4 ovarian = test system: OVCAR-4 ovarian
T-47D breast = test system: T-47D breast
IGROV1 ovarian = test system: IGROV1 ovarian
SNB-75 CNS = test system: SNB-75 CNS
TK-10 renal = test system: TK-10 renal
HS 578T breast = test system: HS 578T breast
CCRF-CEM leukemia = test system: CCRF-CEM leukemia
OVCAR-3 ovarian = test system: OVCAR-3 ovarian
SK-MEL-2 melanoma = test system: SK-MEL-2 melanoma
HCT-15 colon = test system: HCT-15 colon
MCF7 breast = test system: MCF7 breast
UACC-257 melanoma = test system: UACC-257 melanoma
SK-MEL-5 melanoma = test system: SK-MEL-5 melanoma
KM12 colon = test system: KM12 colon
ACHN renal = test system: ACHN renal
DU-145 prostate = test system: DU-145 prostate
MDA-MB-231 breast = test system: MDA-MB-231 breast
SK-OV-3 ovarian = test system: SK-OV-3 ovarian
786-0 renal = test system: 786-0 renal
HOP-62 NSCLC = test system: HOP-62 NSCLC
HCC-2998 colon = test system: HCC-2998 colon
NCI-H23 lung = test system: NCI-H23 lung
SW-620 colon = test system: SW-620 colon
RPMI-8226 leukemia = test system: RPMI-8226 leukemia
PC-3 prostate = test system: PC-3 prostate
NCI/ADR-RES ovarian = test system: NCI/ADR-RES ovarian
SF-295 CNS = test system: SF-295 CNS
M14 melanoma = test system: M14 melanoma
UO-31 renal = test system: UO-31 renal
CAKI-1 renal = test system: CAKI-1 renal
MDA-N = test system: MDA-N
EKVX NSCLC = test system: EKVX NSCLC
SR leukemia = test system: SR leukemia
SN12C renal = test system: SN12C renal
NCI-H226 lung = test system: NCI-H226 lung
LOX IMVI melanoma = test system: LOX IMVI melanoma
U251 CNS = test system: U251 CNS
A549 NSCLC = test system: A549 NSCLC
BT-549 breast = test system: BT-549 breast
SNB-19 CNS = test system: SNB-19 CNS
NCI-H522 lung = test system: NCI-H522 lung
A498 renal = test system: A498 renal
RXF 393 renal = test system: RXF 393 renal

COC(=O)C1(Cc2ccccc2)Cc2ccccc2C1=O (stereo unspecified)
TGI (MOLT-4 leukemia): 90.9 µM | TGI (COLO 205 colon): > 100 µM | TGI (OVCAR-5 ovarian): > 100 µM | TGI (SK-MEL-28 melanoma): > 100 µM | TGI (NCI-H460 lung): > 100 µM | TGI (OVCAR-8 ovarian): > 100 µM | TGI (HCT-116 colon): > 100 µM | TGI (UACC-62 melanoma): > 100 µM | TGI (HT29 colon): > 100 µM | TGI (HL-60(TB) leukemia): 51.1 µM | TGI (HOP-92 NSCLC): > 100 µM | TGI (K-562 leukemia): > 100 µM | TGI (SF-268 CNS): > 100 µM | TGI (MALME-3M melanoma): 39.3 µM | TGI (SF-539 CNS): > 100 µM | TGI (MDA-MB-435): 53.4 µM | TGI (OVCAR-4 ovarian): > 100 µM | TGI (T-47D breast): > 100 µM | TGI (IGROV1 ovarian): > 100 µM | TGI (SNB-75 CNS): > 100 µM | TGI (TK-10 renal): > 100 µM | TGI (HS 578T breast): > 100 µM | TGI (CCRF-CEM leukemia): > 100 µM | TGI (OVCAR-3 ovarian): > 100 µM | TGI (SK-MEL-2 melanoma): 65.5 µM | TGI (HCT-15 colon): > 100 µM | TGI (MCF7 breast): > 100 µM | TGI (UACC-257 melanoma): > 100 µM | TGI (SK-MEL-5 melanoma): 44 µM | TGI (KM12 colon): > 100 µM | TGI (ACHN renal): > 100 µM | TGI (DU-145 prostate): > 100 µM | TGI (MDA-MB-231 breast): > 100 µM | TGI (SK-OV-3 ovarian): > 100 µM | TGI (786-0 renal): > 100 µM | TGI (HOP-62 NSCLC): > 100 µM | TGI (HCC-2998 colon): > 100 µM | TGI (NCI-H23 lung): > 100 µM | TGI (SW-620 colon): > 100 µM | TGI (RPMI-8226 leukemia): > 100 µM | TGI (PC-3 prostate): > 100 µM | TGI (NCI/ADR-RES ovarian): 72.3 µM | TGI (SF-295 CNS): > 100 µM | TGI (M14 melanoma): > 100 µM | TGI (UO-31 renal): > 100 µM | TGI (CAKI-1 renal): > 100 µM | TGI (MDA-N): 94.6 µM | TGI (EKVX NSCLC): > 100 µM | TGI (SR leukemia): 78.3 µM | TGI (SN12C renal): > 100 µM | TGI (NCI-H226 lung): > 100 µM | TGI (LOX IMVI melanoma): > 100 µM | TGI (U251 CNS): 85.9 µM | TGI (A549 NSCLC): > 100 µM

C=CC1(CCC(Br)C(C)(C)Cl)CO1 (stereo unspecified)
TGI (BT-549 breast): > 10 µM | TGI (MOLT-4 leukemia): > 10 µM | TGI (COLO 205 colon): > 10 µM | TGI (OVCAR-5 ovarian): > 10 µM | TGI (SK-MEL-28 melanoma): > 10 µM | TGI (NCI-H460 lung): > 10 µM | TGI (OVCAR-8 ovarian): > 10 µM | TGI (HCT-116 colon): > 10 µM | TGI (HT29 colon): > 10 µM | TGI (HOP-92 NSCLC): > 10 µM | TGI (K-562 leukemia): > 10 µM | TGI (SF-268 CNS): > 10 µM | TGI (MALME-3M melanoma): > 10 µM | TGI (SF-539 CNS): > 10 µM | TGI (MDA-MB-435): > 10 µM | TGI (T-47D breast): > 10 µM | TGI (IGROV1 ovarian): > 10 µM | TGI (SNB-75 CNS): > 10 µM | TGI (TK-10 renal): > 10 µM | TGI (CCRF-CEM leukemia): > 10 µM | TGI (OVCAR-3 ovarian): > 10 µM | TGI (SNB-19 CNS): > 10 µM | TGI (SK-MEL-2 melanoma): > 10 µM | TGI (HCT-15 colon): > 10 µM | TGI (MCF7 breast): > 10 µM | TGI (SK-MEL-5 melanoma): > 10 µM | TGI (KM12 colon): > 10 µM | TGI (ACHN renal): > 10 µM | TGI (DU-145 prostate): > 10 µM | TGI (MDA-MB-231 breast): > 10 µM | TGI (SK-OV-3 ovarian): > 10 µM | TGI (786-0 renal): > 10 µM | TGI (NCI-H522 lung): > 10 µM | TGI (HOP-62 NSCLC): > 10 µM | TGI (HCC-2998 colon): > 10 µM | TGI (SW-620 colon): > 10 µM | TGI (RPMI-8226 leukemia): > 10 µM | TGI (PC-3 prostate): > 10 µM | TGI (NCI/ADR-RES ovarian): > 10 µM | TGI (SF-295 CNS): > 10 µM | TGI (M14 melanoma): > 10 µM | TGI (UO-31 renal): > 10 µM | TGI (CAKI-1 renal): > 10 µM | TGI (MDA-N): > 10 µM | TGI (EKVX NSCLC): > 10 µM | TGI (SN12C renal): > 10 µM | TGI (U251 CNS): > 10 µM | TGI (A549 NSCLC): > 10 µM | TGI (A498 renal): > 10 µM

C=CC(C)(C)n1cc(C2=C(O)C(=O)C(c3cn(C(C)(C)C=C)c4ccccc34)=C(OC(C)=O)C2=O)c2ccccc21
TGI (COLO 205 colon): 3.07 µM | TGI (OVCAR-5 ovarian): 3.08 µM | TGI (SK-MEL-28 melanoma): 2.5 µM | TGI (UACC-62 melanoma): 2.18 µM | TGI (HOP-92 NSCLC): 1.95 µM | TGI (K-562 leukemia): 2.17 µM | TGI (MALME-3M melanoma): 3.06 µM | TGI (MDA-MB-435): 1.74 µM | TGI (OVCAR-4 ovarian): 2.64 µM | TGI (IGROV1 ovarian): 1.65 µM | TGI (SNB-75 CNS): 1.55 µM | TGI (OVCAR-3 ovarian): 2.25 µM | TGI (UACC-257 melanoma): 2.19 µM | TGI (SK-MEL-5 melanoma): 1.87 µM | TGI (KM12 colon): 1.97 µM | TGI (ACHN renal): 2.55 µM | TGI (DU-145 prostate): 2.23 µM | TGI (MDA-MB-231 breast): 2.63 µM | TGI (SK-OV-3 ovarian): 2.85 µM | TGI (786-0 renal): 2.8 µM | TGI (NCI-H522 lung): 2.97 µM | TGI (HOP-62 NSCLC): 1.94 µM | TGI (RXF 393 renal): 2.38 µM | TGI (HCC-2998 colon): 2.16 µM | TGI (RPMI-8226 leukemia): 3.88 µM | TGI (PC-3 prostate): 1.99 µM | TGI (SF-295 CNS): 1.88 µM | TGI (UO-31 renal): 2.3 µM | TGI (CAKI-1 renal): 2.28 µM | TGI (MDA-N): 1.99 µM | TGI (LOX IMVI melanoma): 1.72 µM | TGI (A498 renal): 2.1 µM

O=C(CCCN1CCc2[nH]c3cc(F)ccc3c2C1)c1ccc(F)cc1
TGI (MOLT-4 leukemia): 29 µM | TGI (COLO 205 colon): 17.1 µM | TGI (OVCAR-5 ovarian): 24.7 µM | TGI (SK-MEL-28 melanoma): 34.9 µM | TGI (NCI-H460 lung): 23.9 µM | TGI (OVCAR-8 ovarian): 28.4 µM | TGI (HCT-116 colon): 24.2 µM | TGI (UACC-62 melanoma): 25.5 µM | TGI (HT29 colon): 20.5 µM | TGI (HL-60(TB) leukemia): 27.2 µM | TGI (HOP-92 NSCLC): 8.59 µM | TGI (K-562 leukemia): 22.5 µM | TGI (SF-268 CNS): 26.7 µM | TGI (MALME-3M melanoma): 26 µM | TGI (SF-539 CNS): 30.5 µM | TGI (MDA-MB-435): 25.6 µM | TGI (OVCAR-4 ovarian): 26.9 µM | TGI (T-47D breast): 36.1 µM | TGI (IGROV1 ovarian): 30.2 µM | TGI (SNB-75 CNS): 22.9 µM | TGI (TK-10 renal): 24.9 µM | TGI (HS 578T breast): 30 µM | TGI (CCRF-CEM leukemia): 30.9 µM | TGI (OVCAR-3 ovarian): 28.1 µM | TGI (SNB-19 CNS): > 100 µM | TGI (SK-MEL-2 melanoma): 32.4 µM | TGI (HCT-15 colon): 31.3 µM | TGI (MCF7 breast): 18.3 µM | TGI (UACC-257 melanoma): 28.8 µM | TGI (SK-MEL-5 melanoma): 30.8 µM | TGI (KM12 colon): 26.9 µM | TGI (ACHN renal): 26.8 µM | TGI (DU-145 prostate): 26.1 µM | TGI (MDA-MB-231 breast): 25.5 µM | TGI (786-0 renal): 26.6 µM | TGI (NCI-H522 lung): 35.6 µM | TGI (HOP-62 NSCLC): 29.8 µM | TGI (RXF 393 renal): 28.3 µM | TGI (HCC-2998 colon): 11.9 µM | TGI (NCI-H23 lung): 28 µM | TGI (SW-620 colon): > 100 µM | TGI (RPMI-8226 leukemia): 27.2 µM | TGI (PC-3 prostate): 25.7 µM | TGI (NCI/ADR-RES ovarian): 36.1 µM | TGI (SF-295 CNS): 32.7 µM | TGI (M14 melanoma): 22.2 µM | TGI (CAKI-1 renal): > 100 µM | TGI (MDA-N): 29.2 µM | TGI (EKVX NSCLC): 29.3 µM | TGI (SR leukemia): 26.1 µM | TGI (SN12C renal): 27.7 µM | TGI (NCI-H226 lung): 38.7 µM | TGI (LOX IMVI melanoma): 17.5 µM | TGI (U251 CNS): 29.8 µM | TGI (A549 NSCLC): 29.5 µM | TGI (A498 renal): 24.4 µM
